According to patent US20080096894A1, “Anti-Bacterial Compounds” (ASTON UNIVERSITY, priority 2005, published 2008):
≈ marks a conversion by molar mass, not a printed value. Read-outs that look alike come from different tables or passages of the source.

Tests used:
Assay in all cases: MIC, agar dilution, multipoint inoculator
[1] = test system: S. aureus; type: cell-based, Staphylococcus aureus; conditions: upper value of MIC reading
Experimental: (§1) This activity was measured using a multipoint inoculator method as follows. The MIC for each compound was measured using an agar dilution method (Onda, H., et al., Int. J. Antimicrob. Agents. 18, 263 (2001)) (Mueller Hinton agar) by means of a multipoint inoculator delivering 10^4 colony forming units per spot.

[2] = test system: MRSA; type: cell-based, methicillin-resistant Staphylococcus aureus
Experimental: as §1
‘Staph’ refers to the reference strain of S. aureus (NCTC 6571). A tick in the MRSA column refers to a positive zone against MRSA strain 96-7474, and the MIC range (in μg/ml) which follows is that found against a panel of ten MRSA strains. Where MIC values are given for MRSA, these are stated as a range of values, as testing was carried out on a panel of clinical isolates.

[3] = test system: S. epidemisis; type: cell-based, Staphylococcus epidermidis; conditions: upper value of MIC reading
Experimental: as §1

[4] = test system: E. faecalis; type: cell-based; conditions: upper value of MIC reading
Experimental: as §1

[5] = test system: S. haemolyticus; type: cell-based; conditions: S. haemolyticus Isolate 1, upper value of MIC reading
Experimental: as §1

[6] = test system: E. faecium; type: cell-based, Enterococcus faecium; conditions: upper value of MIC reading
Experimental: as §1

[7] = MRSA Isolate 1, upper value of MIC reading, in µg/mL
[8] = MRSA Isolate 2, upper value of MIC reading, in µg/mL
[9] = MRSA Isolate 3, upper value of MIC reading, in µg/mL
[10] = MRSA Isolate 4, upper value of MIC reading, in µg/mL
[11] = MRSA Isolate 5, upper value of MIC reading, in µg/mL
[12] = MRSA Isolate 6, upper value of MIC reading, in µg/mL
[13] = MRSA Isolate 7, upper value of MIC reading, in µg/mL
[14] = MRSA Isolate 8, upper value of MIC reading, in µg/mL
[15] = MRSA Isolate 9, upper value of MIC reading, in µg/mL
[16] = MRSA Isolate 10, upper value of MIC reading, in µg/mL
[17] = panel of ten MRSA strains (clinical isolates)

Structure (SMILES): NC(=NN=Cc1cc([N+](=O)[O-])ccc1O)c1ccccn1 [Compound 2PYcj]
- MIC ([1]; S. aureus Cowan 1): 32 µg/mL (≈ 112 µM)
- MIC ([1]; S. aureus NCTC 6571): 16 µg/mL (≈ 56.1 µM)
- MIC ([1]; S. aureus NCTC 10788): 16 µg/mL (≈ 56.1 µM)
- MIC [2, 7]: 16
- MIC [2, 8]: 16
- MIC [2, 9]: 4
- MIC [2, 10]: 8
- MIC [2, 11]: 16
- MIC [2, 12]: 16
- MIC [2, 13]: 8
- MIC [2, 14]: 4-8
- MIC [2, 15]: 8
- MIC [2, 16]: 8
- MRSA MIC range [2, 17]: 4 to 32 µg/mL
- MIC ([3]; S. epidemisis Isolate 1): 256 µg/mL (≈ 897 µM)
- MIC ([3]; S. epidemisis NCTC 11047): 256 µg/mL (≈ 897 µM)
- MIC ([4]; E. faecalis Isolate 3): 256 µg/mL (≈ 897 µM)
- MIC ([4]; E. faecalis Isolate 5): 256 µg/mL (≈ 897 µM)
- MIC [5]: 256 µg/mL (≈ 897 µM)

Structure (SMILES): COc1ccc(C=NNc2ccccn2)c(O)c1 [HDcf]
- MRSA MIC range [2, 17]: 20 to 30 µg/mL

Structure (SMILES): Cc1cccc(C=NN=C(N)c2ccccn2)c1 [Compound 2PYaj]
- MRSA MIC range [2, 17]: 128 to 256 µg/mL

Structure (SMILES): O=Cc1cc(Br)cc([N+](=O)[O-])c1O [cl]
- MIC ([1]; S. aureus Cowan 1): 32 µg/mL (≈ 130 µM)
- MIC ([1]; S. aureus NCTC 6571): 16 µg/mL (≈ 65 µM)
- MIC ([1]; S. aureus NCTC 10788): 16 µg/mL (≈ 65 µM)
- MIC [2, 7]: 16
- MIC [2, 8]: 16
- MIC [2, 9]: 32
- MIC [2, 10]: 16
- MIC [2, 11]: 16
- MIC [2, 12]: 32
- MIC [2, 13]: 32
- MIC [2, 14]: 32
- MIC [2, 15]: 32

Structure (SMILES): NC(=NN=Cc1cccc(Cl)c1)c1ccccn1 [Compound 2PYdg]
- MRSA MIC range [2, 17]: 64 to 128 µg/mL

Structure (SMILES): NC(=NN=Cc1cc(Br)cc([N+](=O)[O-])c1O)c1ccc2ccccc2n1 [QNcl]
- MIC ([1]; S. aureus NCTC 6571): > 256 µg/mL
- MIC [2, 8]: 64
- MIC [2, 9]: 64
- MIC [2, 10]: 64
- MIC ([3]; S. epidemisis NCTC 11047): 256 µg/mL (≈ 618 µM)
- MIC ([4]; E. faecalis Isolate 2): 256 µg/mL (≈ 618 µM)
- MIC ([4]; E. faecalis Isolate 3): 256 µg/mL (≈ 618 µM)
- MIC [5]: 256 µg/mL (≈ 618 µM)

Structure (SMILES): NC(=NN=Cc1c(O)ccc2ccccc12)c1ccccn1 [Compound 2PYdb]
- MIC ([1]; S. aureus NCTC 6571): > 256 µg/mL
- MIC [2, 9]: >256
- MRSA MIC range [2, 17]: > 256 µg/mL

Structure (SMILES): NC(=NN=Cc1cc([N+](=O)[O-])ccc1O)c1ccncc1 [Compound 4PYcj]
- MRSA MIC range [2, 17]: 20 to 30 µg/mL

Structure (SMILES): NC(=NN=Cc1cc(I)cc(I)c1O)c1ccncc1 [Compound 4PYco]
- MRSA MIC range [2, 17]: 10 to 20 µg/mL

Structure (SMILES): CCc1ccccc1C=NN=C(N)c1ccccn1 [Compound 2PYai]
- MRSA MIC range [2, 17]: 128 to 256 µg/mL

Structure (SMILES): NC(=NN=Cc1cc(Br)cc([N+](=O)[O-])c1O)c1ccccn1 [Compound 2PYcl]
- MIC ([1]; S. aureus Cowan 1): 64 µg/mL (≈ 176 µM)
- MIC ([1]; S. aureus NCTC 6571): 32 µg/mL (≈ 87.9 µM)
- MIC ([1]; S. aureus NCTC 10788): 32 µg/mL (≈ 87.9 µM)
- MIC [2, 7]: 64
- MIC [2, 8]: 64
- MIC [2, 9]: 64
- MIC [2, 10]: 32
- MIC [2, 11]: 32
- MIC [2, 12]: 64
- MIC [2, 13]: 64
- MIC [2, 14]: 64
- MIC [2, 15]: 64
- MIC [2, 16]: 64
- MIC ([6]; E. faecium ACTCC 10541): 128 µg/mL (≈ 351 µM)
- MIC ([6]; E. faecium NCTC 7171): 256 µg/mL (≈ 703 µM)
- MIC ([4]; E. faecalis EBH1): 256 µg/mL (≈ 703 µM)
- MIC ([4]; E. faecalis NCTC 5957): 256 µg/mL (≈ 703 µM)

Structure (SMILES): CC(C)(C)c1cc(C=NN=C(N)c2ccncc2)cc(C(C)(C)C)c1O [Compound 4PYcr]
- MIC ([1]; S. aureus NCTC 6571): > 256 µg/mL
- MIC [2, 9]: >256
- MRSA MIC range [2, 17]: > 256 µg/mL

Structure (SMILES): NC(=NN=Cc1ccc(O)c(O)c1O)c1cnccn1 [PZcb]
- MIC ([1]; S. aureus Cowan 1): 256 µg/mL (≈ 937 µM)
- MIC ([1]; S. aureus NCTC 6571): 256 µg/mL (≈ 937 µM)
- MIC ([1]; S. aureus NCTC 10788): 256 µg/mL (≈ 937 µM)
- MIC [2, 7]: 256
- MIC [2, 8]: 256
- MIC [2, 9]: 256
- MIC [2, 10]: 256
- MIC [2, 11]: 256
- MIC [2, 12]: 256
- MIC [2, 13]: 256
- MIC [2, 14]: 256
- MIC [2, 15]: 256
- MIC [2, 16]: 256
- MRSA MIC range [2, 17]: 128 to 256 µg/mL
- MIC ([3]; S. epidemisis NCTC 11047): 256 µg/mL (≈ 937 µM)
- MIC ([4]; E. faecalis Isolate 2): 256 µg/mL (≈ 937 µM)
- MIC ([4]; E. faecalis Isolate 3): 256 µg/mL (≈ 937 µM)
- MIC [5]: 256 µg/mL (≈ 937 µM)

Structure (SMILES): Cc1ccccc1C=NN=C(N)c1ccccn1 [Compound 2PYah]
- MRSA MIC range [2, 17]: 128 to 256 µg/mL

Structure (SMILES): NC(=NN=Cc1cc(O)c(O)cc1O)c1ccncc1 [Compound 4PYcc]
- MRSA MIC range [2, 17]: 20 to 30 µg/mL

Structure (SMILES): NC(=NN=Cc1ccc(O)c(O)c1O)c1ccncc1 [Compound 4PYcb]
- MRSA MIC range [2, 17]: 30 to 40 µg/mL

Structure (SMILES): CC(C)(C)[Si](C)(C)Oc1ccccc1/C=N/N=C(\N)c1cnccn1 [PZeg]
- MRSA MIC range [2, 17]: > 256 µg/mL

Structure (SMILES): NC(=NN=Cc1cc([N+](=O)[O-])ccc1O)c1cnccn1 [PZcj]
- MIC ([1]; S. aureus Cowan 1): 256 µg/mL (≈ 894 µM)
- MIC ([1]; S. aureus NCTC 6571): 16 µg/mL (≈ 55.9 µM)
- MIC ([1]; S. aureus NCTC 10788): 16 µg/mL (≈ 55.9 µM)
- MIC [2, 7]: 8
- MIC [2, 8]: 8
- MIC [2, 9]: 4
- MIC [2, 10]: 4
- MIC [2, 11]: 16
- MIC [2, 12]: 16
- MIC [2, 13]: 16
- MIC [2, 14]: 16
- MIC [2, 15]: 16
- MIC [2, 16]: 16
- MRSA MIC range [2, 17]: 4 to 16 µg/mL
- MIC ([3]; S. epidemisis Isolate 1): 256 µg/mL (≈ 894 µM)
- MIC ([4]; E. faecalis Isolate 3): 256 µg/mL (≈ 894 µM)

Structure (SMILES): N/C(=N\N=C\c1ccccc1Sc1ccc(Cl)cc1)c1ccncc1 [Compound 4PYeh, N^1-[2-(4-chlorothiophenyl)benzylidene]-pyridine-4-carboxamidrazone]
- MIC ([1]; Staphylococcus aureus, 18 h, S. aureus Cowan 1, read-out: MIC): 8 µg/mL (≈ 21.8 µM)
- MIC ([1]; Staphylococcus aureus, NCTC6571, 18 h, S. aureus NCTC 6571, read-out: MIC): 128 µg/mL (≈ 349 µM)
- MIC ([1]; Staphylococcus aureus, NCTC10788, 18 h, S. aureus NCTC 10788, read-out: MIC): 16 µg/mL (≈ 43.6 µM)
- MIC ([2]; Staphylococcus aureus, 18 h, MRSA Isolate 1, upper value of MIC reading, read-out: MIC): 16 µg/mL (≈ 43.6 µM)
- MIC ([2]; Staphylococcus aureus, 18 h, MRSA Isolate 2, upper value of MIC reading, read-out: MIC): 16 µg/mL (≈ 43.6 µM)
- MIC ([2]; Staphylococcus aureus, 18 h, MRSA Isolate 3, upper value of MIC reading, read-out: MIC): 16 µg/mL (≈ 43.6 µM)
- MIC ([2]; Staphylococcus aureus, 18 h, MRSA Isolate 4, upper value of MIC reading, read-out: MIC): 16 µg/mL (≈ 43.6 µM)
- MIC ([2]; Staphylococcus aureus, 18 h, MRSA Isolate 5, upper value of MIC reading, read-out: MIC): 16 µg/mL (≈ 43.6 µM)
- MIC ([2]; Staphylococcus aureus, 18 h, MRSA Isolate 6, upper value of MIC reading, read-out: MIC): 16 µg/mL (≈ 43.6 µM)
- MIC ([2]; Staphylococcus aureus, 18 h, MRSA Isolate 7, upper value of MIC reading, read-out: MIC): 64 µg/mL (≈ 174 µM)
- MIC ([2]; Staphylococcus aureus, 18 h, MRSA Isolate 8, upper value of MIC reading, read-out: MIC): 32 µg/mL (≈ 87.2 µM)
- MIC ([2]; Staphylococcus aureus, 18 h, MRSA Isolate 9, upper value of MIC reading, read-out: MIC): 16 µg/mL (≈ 43.6 µM)
- MIC ([2]; Staphylococcus aureus, 18 h, MRSA Isolate 10, upper value of MIC reading, read-out: MIC): 16 µg/mL (≈ 43.6 µM)
- MIC ([2]; Staphylococcus aureus, MRSA, 18 h, panel of ten MRSA strains (clinical isolates), read-out: MRSA MIC range): 8 to 64 µg/mL (≈ 21.8 to 174 µM)
- MIC ([3]; Staphylococcus epidermidis, 18 h, S. epidemisis Isolate 1, read-out: MIC): 256 µg/mL (≈ 698 µM)
- MIC ([3]; Staphylococcus epidermidis, NCTC11047, 18 h, S. epidemisis NCTC 11047, read-out: MIC): 256 µg/mL (≈ 698 µM)
- MIC ([5]; Staphylococcus haemolyticus, 18 h, read-out: MIC): 256 µg/mL (≈ 698 µM)

Structure (SMILES): CN(C)c1ccc(C=NN=C(N)c2ccccn2)cc1 [Compound 2PYdq]
- MRSA MIC range [2, 17]: 128 to 256 µg/mL
